Reference: patent US20240317826A1, “COMPOSITIONS AND METHODS FOR TREATING AND/OR I[…] AGENT FOR TREATING HIV-1 INFECTIONS” (priority 2021, published 2024)
“Also recorded” adds a separate entry of the source. Like-named read-outs stand apart in the source and are kept apart here.

Tests used:
IN/INI1 complex = biological target: T1, IN/INI1 complex (Human immunodeficiency virus type 1 group M subtype B, UniProt P04585); test: co-IP in 293T cells: HA-INI1 bound to YFP-IN; format: cell-based, HIV-1
T1 construct: expressed in transfected cells; host or cells: 293T cells
Excerpt: (§1) Panels d-g show the input RNA and protein levels within transfected cells: the RT-PCR analysis of input TAR RNA levels (panel d); Immunoblot analysis of input HA-INI1 (panel e); input YFP-IN (panel f); and GAPDH level for loading control (panel g). Lane 1 is RNA-co-IP using isotype IgG control antibodies and lanes 2-7 are RNA-co-IP using anti-GFP antibodies to pull down IN. There is ˜1000 fold inhibition of RNA and INI1 binding to IN in the presence of SP-38 peptide (compare lane 6 to lane 5).
(§2) To determine if stapled peptides can inhibit interaction of IN with TAR RNA in cells, we carried out RNA-co-IP experiments (FIG. 8e). YFP-IN and TAR RNA were expressed by co-transfecting plasmids pYFP-fN, pLTIR-luc and pTat in 293T cells. Cells were treated with SP-38 or SP-83 (D225G mutant) peptides. After transfection, the cell lysates were treated with DNaseI and subjected to immunoprecipitation (IP) using α-GFP antibodies to pull down YFP-IN and associated complexes. RNA was separated from the immune complexes and subjected to RT-PCR to detect bound TAR RNA (FIG. 8e, panel a). Immunoblot analysis of bound proteins were carried out using: α-HA to detect bound HA-INI1 (FIG. 8e, panel b) and α-GFP to detect YFP-IN (FIG. 8e, panel c). RT-PCR of the RNA isolated from cell lysate was used as input control (FIG. 8e, panel d). Immunoblot analysis of total proteins from cell lysates as input control were carried out using α-HA to detect input HA-INI1 (FIG. 8e, panel e), α-GFP to detect input YFP-IN (FIG. 8e, panel f), and α-GAPDH to detect GAPDH as loading control (FIG. 8e, panel g). […] Expression of both GFP-IN and TAR RNA in the cells led to successful RNA-co-IP by α-GFP antibodies (FIG. 8e, lane 5).

IN-TAR RNA interaction = biological target: T2, IN-TAR RNA interaction (Human immunodeficiency virus type 1 group M subtype B, UniProt P04585); test: Alpha interaction assay: effect of stapled peptides on IN-TAR RNA interaction; format: binding, HIV-1; settings: in vitro
T2 construct: made in house; host or cells: bacteria (E. coli inferred from the pGEX vector)
Description: (§3) FIG. 8A-FIG. 8D show quantitative alpha interaction assay to determine the effect of stapled peptides on the interaction of IN and IN-CTD with INI1 and INI1183-304 or TAR RNA. […] Fixed concentrations of GST-IN, 6His-INI1, and TAR RNA were incubated with increasing concentration of stapled peptides and the interaction was detected as Alpha Score. The IC50 values were determined by fitting the data to a four-parameter dose-response curve using Graph Pad prism. All the graphs represent the average of three independent experiments (Mean+/−SEM).
(§4) AlphaScreen proximity assay to detect the protein-protein and protein-RNA interactions. AlphaScreen assay was carried out using PerkinElmer Alpha-Lisa-6His Acceptor beads (Catalogue #AL128C), Alpha-Screen-GST donor beads (Catalogue #6765300), GST-tagged and His-tagged proteins for protein-protein interactions; and Alpha-Screen Streptavidin donor beads (Catalogue #6760002 S), Alpha-Lisa-GST acceptor beads (Catalogue #AL110C), Biotin-labeled RNA and GST-tagged proteins for protein-RNA interactions. The reaction was carried out according to the manufacturer's protocol in a reaction buffer contacting (25 mM HEPES pH 7.4, 100 mM NaCl (or 500 mM NaCl), 1 mM DTT, 1 mM MgCl2 and BSA 1 mg ml/ml). The mixture of proteins or protein and RNA were incubated for 1 hr at room temperate with shaking in a multi micro-plate shaker and then 20 ag ml/ml accepter beads were added and incubated for additional 1 h with shaking. Finally, 20 ag ml^−1 of donor beads were added and further incubated for 1 hr. The Alpha score readings were measured using Alpha-compatible Envision 2105 multi-plate reader (Perkin-Elmer). All the experiments related to this method were carried out 3 to 5 times and data were analyzed by using Graph Pad Prism 9 version 9.0.0 (GraphPad Software, CA). The RNA sequences used in this assay are listed in the Table 6d and were obtained from Integrated DNA technology.
(§5) These peptides were tested for their ability to disrupt the interaction between IN-INI1 and IN-TAR RNA in vitro.

IN-INI1 interaction = biological target: T3, IN-INI1 interaction (Human immunodeficiency virus type 1 group M subtype B, UniProt P04585); test: Alpha interaction assay: effect of stapled peptides on IN-INI1 interaction; format: binding, HIV-1; settings: in vitro
T3 construct: made in house; host or cells: bacteria (E. coli inferred from the pGEX vector)
Description: as §3, §4, §5

IN/TAR RNA complex = biological target: T4, IN/TAR RNA complex (Human immunodeficiency virus type 1 group M subtype B, UniProt P04585); test: RNA-co-IP in 293T cells: TAR RNA bound to YFP-IN; format: cell-based, HIV-1
T4 construct: expressed in transfected cells; host or cells: 293T cells
Excerpt: as §1
For RNA-co-IP, […] were transfected with pCMV-Tat and pLTR-luc plasmids along with pYFP-IN and pCGN-INI1. Immunopreciptation was carried out as above using α-GFP (Cell Signal, Catalogue #2555; Lot #8; 5 ag/sample) antibodies. The immunecomplexes were then split into two and RNA was isolated from one half using Trizol reagent (Invitrogen Catalogue #15596026) and subjected to qRT-PCR using Early RT primers. The other half was subjected to immunoblot analysis.
as §2

[1] = test system: INI1 incorporation into HIV-1 virions; test: Immunoblot of virions for incorporation of INI1; format: cell-based; settings: Western analysis of concentrated virions
Excerpt: FIG. 12A-FIG. 12C show effects of stapled peptides on virion morphogenesis and incorporation of INI1. […] The middle panel is the expanded version and the lower panel represents the carton of the two viral particles from the middle panel. Note the empty capsid shell and eccentric electron dense material, typical of morphologically defective virions. […] About 200 virions each were scored to quantify four different types of morphological forms—Conical (Co), Eccentric (Ec), Immature (Im) and Unclear (Uc).
We tested the incorporation of INI1 into the virions. Electron microscopy analysis of ˜200 particles and Western analysis of concentrated virions were carried out to determine the presence or absence of INI1 (FIG. 12b).

Substance	inhibition of IN/INI1 complex formation within cells (IN/INI1 complex)	inhibition of INI1 binding to IN (IN/INI1 complex; immunoblot of bound HA-INI1) [fold]	IC50, inhibition of IN-TAR RNA interactions (IN-TAR RNA interaction)	IC50, inhibition of IN-INI1 interactions (IN-INI1 interaction)	inhibition of IN/RNA complex formation within cells (IN/TAR RNA complex)	incorporation of INI1 into virions [1]	inhibition of IN/INI1 complex formation within cells (IN/INI1 complex; listed as SP83 (D225G))	inhibition of IN-TAR RNA interactions (IN-TAR RNA interaction)	inhibition of IN-INI1 interactions (IN-INI1 interaction)	inhibition of RNA binding to IN in RNA-co-IP (IN/TAR RNA complex; RT-PCR of bound TAR RNA)	inhibition of IN/RNA complex formation within cells (IN/TAR RNA complex; listed as SP83 (D225G))
lys-Leu-Met-Thr-Pro-Glu-Met-Phe-S5-Glu-Ile-Leu-S5-Cys-Asp-Leu-Asn [SP38]	potently inhibits	~1000	low nanomolar	low nanomolar	potently inhibits	not incorporated; also recorded: lack of INI1 incorporation into virions					
lys-Leu-Met-Thr-Pro-Glu-Met-Phe-S5-Glu-Ile-Leu-S5-Cys-Gly-Leu-Asn [SP83]	not				not	incorporated	does not inhibit	not	not	not	does not inhibit
